pIC50: −log10 of the molar value.
Legend:
Nav 1.7 [1] = biological target: T1, Nav 1.7 (Homo sapiens (Human), UniProt Q15858); experiment: Nav 1.7 in vitro PX assay (PatchXpress whole cell voltage clamp); format: cell-based; conditions: 293 cells, human Nav1.7, partially inactivated state; read-out: Nav1.7 PX IC50 IP
Outline: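 HEK293 cells stably expressing human Nav1.7, whole-cell voltage clamp on PatchXpress, held at potential giving 20–50% inactivation; current elicited by 20 msec pulse to −10 mV.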

Nav 1.7 [2] = biological target: T1, Nav 1.7; experiment: Nav 1.7 IWQ in vitro assay (IonWorks Quattro population patch-clamp); format: cell-based; conditions: 293 cells stably transfected with Nav 1.7; second part of table; read-out: Nav1.7 IWQ IC50 IP
Outline: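 HEK293 cells stably expressing Nav 1.7, recorded by automated population patch-clamp with a train of depolarizations producing increasing inactivation. Single compound concentration added during 3–8 min unclamped period, then same protocol repeated. Leak-corrected current at 26th pulse to −20 mV gave percent block (duplicate); IC50 fitted from concentration–block curves.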

T1 sequence (Q15858 whole entry): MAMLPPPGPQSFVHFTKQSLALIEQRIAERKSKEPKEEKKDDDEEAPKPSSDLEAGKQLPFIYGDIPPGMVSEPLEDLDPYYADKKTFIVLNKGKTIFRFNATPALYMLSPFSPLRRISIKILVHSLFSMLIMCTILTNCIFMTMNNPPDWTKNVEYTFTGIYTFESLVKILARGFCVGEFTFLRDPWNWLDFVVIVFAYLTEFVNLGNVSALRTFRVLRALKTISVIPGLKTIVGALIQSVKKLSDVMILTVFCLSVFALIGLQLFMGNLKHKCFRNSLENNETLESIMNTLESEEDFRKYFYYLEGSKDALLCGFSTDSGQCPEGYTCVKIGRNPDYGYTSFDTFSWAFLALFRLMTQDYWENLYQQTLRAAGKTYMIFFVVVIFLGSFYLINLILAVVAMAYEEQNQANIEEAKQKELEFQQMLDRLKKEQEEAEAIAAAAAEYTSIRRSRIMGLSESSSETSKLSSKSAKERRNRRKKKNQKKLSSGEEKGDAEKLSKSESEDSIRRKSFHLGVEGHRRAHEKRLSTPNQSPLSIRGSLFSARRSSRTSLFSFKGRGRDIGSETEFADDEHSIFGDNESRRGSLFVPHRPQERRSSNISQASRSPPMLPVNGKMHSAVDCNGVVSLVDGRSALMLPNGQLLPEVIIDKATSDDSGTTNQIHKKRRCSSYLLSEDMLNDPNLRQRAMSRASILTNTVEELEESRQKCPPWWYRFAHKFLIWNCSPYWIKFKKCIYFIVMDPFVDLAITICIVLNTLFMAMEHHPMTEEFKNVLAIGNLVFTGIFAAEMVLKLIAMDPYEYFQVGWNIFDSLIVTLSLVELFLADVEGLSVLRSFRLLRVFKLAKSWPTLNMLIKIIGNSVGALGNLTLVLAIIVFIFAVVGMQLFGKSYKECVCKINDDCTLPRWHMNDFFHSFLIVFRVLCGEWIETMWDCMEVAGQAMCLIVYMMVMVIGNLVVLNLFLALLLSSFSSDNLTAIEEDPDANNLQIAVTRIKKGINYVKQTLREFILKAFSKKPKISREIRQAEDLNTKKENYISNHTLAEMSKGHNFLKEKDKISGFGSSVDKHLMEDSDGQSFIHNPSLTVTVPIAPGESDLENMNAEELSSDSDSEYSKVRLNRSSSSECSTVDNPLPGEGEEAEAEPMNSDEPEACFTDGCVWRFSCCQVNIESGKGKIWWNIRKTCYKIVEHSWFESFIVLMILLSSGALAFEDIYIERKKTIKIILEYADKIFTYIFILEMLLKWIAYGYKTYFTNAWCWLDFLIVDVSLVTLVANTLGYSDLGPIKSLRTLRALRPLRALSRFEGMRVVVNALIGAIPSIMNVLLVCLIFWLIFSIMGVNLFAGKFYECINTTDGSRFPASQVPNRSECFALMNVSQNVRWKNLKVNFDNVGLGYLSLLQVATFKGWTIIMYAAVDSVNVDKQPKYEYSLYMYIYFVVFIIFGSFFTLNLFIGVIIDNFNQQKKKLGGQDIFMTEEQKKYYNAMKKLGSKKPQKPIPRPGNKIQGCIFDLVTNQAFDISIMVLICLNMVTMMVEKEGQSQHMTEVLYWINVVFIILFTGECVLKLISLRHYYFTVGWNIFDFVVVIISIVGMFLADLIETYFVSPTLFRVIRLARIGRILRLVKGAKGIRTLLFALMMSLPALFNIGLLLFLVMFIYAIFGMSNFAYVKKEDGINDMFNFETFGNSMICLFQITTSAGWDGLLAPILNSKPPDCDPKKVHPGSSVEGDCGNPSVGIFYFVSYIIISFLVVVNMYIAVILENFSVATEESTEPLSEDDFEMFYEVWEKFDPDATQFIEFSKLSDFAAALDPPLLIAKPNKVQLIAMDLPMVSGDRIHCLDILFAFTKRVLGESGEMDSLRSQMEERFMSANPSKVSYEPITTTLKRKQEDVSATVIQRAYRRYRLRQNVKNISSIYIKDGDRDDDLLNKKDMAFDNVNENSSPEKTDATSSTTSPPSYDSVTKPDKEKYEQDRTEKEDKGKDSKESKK

pIC50 (Nav 1.7 [1])	pIC50 (Nav 1.7 [2])	Compound
6.04	7.70	CNc1cc2cc(S(=O)(=O)Nc3nccs3)ccc2c(-c2ccc(C(F)(F)F)cc2OC)n1 [Example 222, 1-(2-METHOXY-4-(TRIFLUOROMETHYL)PHENYL)-3-(METHYLAMINO)-N-(THIAZOL-2-YL)ISOQUINOLINE-6-SULFONAMIDE]
5.19	5.96	COc1cc(C(F)(F)F)ccc1-c1nc(N(C)C)cc2cc(S(=O)(=O)Nc3nccs3)ccc12 [Example 223, 3-(DIMETHYLAMINO)-1-(2-METHOXY-4-(TRIFLUOROMETHYL)PHENYL)-N-(THIAZOL-2-YL)ISOQUINOLINE-6-SULFONAMIDE]
6.50	7.70	COc1cc(C(F)F)ccc1-c1nccc2cc(S(=O)(=O)Nc3nccs3)ccc12 [Example 224, 1-(4-(DIFLUOROMETHYL)-2-METHOXYPHENYL)-N-(THIAZOL-2-YL)ISOQUINOLINE-6-SULFONAMIDE]
6.13	7.52	COCc1cc(C(F)(F)F)ccc1-c1nccc2cc(S(=O)(=O)Nc3nccs3)ccc12 [Example 225, 1-(2-(METHOXYMETHYL)-4-(TRIFLUOROMETHYL)PHENYL)-N-(THIAZOL-2-YL)ISOQUINOLINE-6-SULFONAMIDE]
6.22	7.05	COC(=N)c1cc(C(F)(F)F)ccc1-c1nccc2cc(S(=O)(=O)Nc3nccs3)ccc12 [Example 226, METHYL 2-(6-(N-(THIAZOL-2-YL)SULFAMOYL)ISOQUINOLIN-1-YL)-5-(TRIFLUOROMETHYL)BENZIMIDATE]
5.64	6.96	NC(=O)c1cc(C(F)(F)F)ccc1-c1nccc2cc(S(=O)(=O)Nc3nccs3)ccc12 [Example 227, 2-(6-(N-(THIAZOL-2-YL)SULFAMOYL)ISOQUINOLIN-1-YL)-5-(TRIFLUOROMETHYL)BENZAMIDE]
5.82	6.96	O=S(=O)(Nc1nccs1)c1ccc2c(-c3ccc(C(F)(F)F)cc3F)nccc2c1 [Example 228, 1-(2-FLUORO-4-(TRIFLUOROMETHYL)PHENYL)-N-(THIAZOL-2-YL)ISOQUINOLINE-6-SULFONAMIDE]
6.38	8.00	O=S(=O)(Nc1nccs1)c1ccc2c(-c3ccc(C(F)(F)F)cc3-n3ccnc3)nccc2c1 [Example 229, 1-(2-(1H-IMIDAZOL-1-YL)-4-(TRIFLUOROMETHYL)PHENYL)-N-(THIAZOL-2-YL)ISOQUINOLINE-6-SULFONAMIDE]
6.57	7.40	COc1cc(C(F)(F)F)ccc1-c1ncc(OC)c2cc(S(=O)(=O)Nc3nccs3)ccc12 [Example 231, 4-METHOXY-1-(2-METHOXY-4-(TRIFLUOROMETHYL)PHENYL)-N-(THIAZOL-2-YL)ISOQUINOLINE-6-SULFONAMIDE 2,2,2-TRIFLUOROACETATE]
6.82	7.30	O=S(=O)(Nc1nccs1)c1ccc2c(-c3ccc(C(F)(F)F)cc3Br)nccc2c1 [Example 235, 1-(2-BROMO-4-(TRIFLUOROMETHYL)PHENYL)-N-(THIAZOL-2-YL)ISOQUINOLINE-6-SULFONAMIDE]
6.37	6.89	O=S(=O)(Nc1ncns1)c1ccc2c(N3CCCC3c3ccccc3)nccc2c1 (stereo not shown) [Example 236, 1-(2-PHENYLPYRROLIDIN-1-YL)-N-(1,2,4-THIADIAZOL-5-YL)ISOQUINOLINE-6-SULFONAMIDE]
5.91	6.13	O=S(=O)(Nc1nccs1)c1ccc2c(N3CCCC3c3ccccc3)nccc2c1 (stereo not shown) [Example 237, 1-(2-PHENYLPYRROLIDIN-1-YL)-N-(THIAZOL-2-YL)ISOQUINOLINE-6-SULFONAMIDE]
6.11	6.85	O=S(=O)(Nc1nccs1)c1ccc2c(N3CCC[C@@H]3c3ccccc3)nccc2c1 [Example 238, (R)-1-(2-phenylpyrrolidin-1-yl)-N-(thiazol-2-yl)isoquinoline-6-sulfonamide]
5.34	5.84	O=S(=O)(Nc1nccs1)c1ccc2c(N3CCC[C@H]3c3ccccc3)nccc2c1 [Example 239, (S)-1-(2-PHENYLPYRROLIDIN-1-YL)-N-(THIAZOL-2-YL)ISOQUINOLINE-6-SULFONAMIDE]
6.41	6.72	COc1cc(C(F)(F)F)ccc1-c1ncc(C#N)c2cc(S(=O)(=O)Nc3nccs3)ccc12 [Example 240, 4-CYANO-1-(2-METHOXY-4-(TRIFLUOROMETHYL)PHENYL)-N-(THIAZOL-2-YL)ISOQUINOLINE-6-SULFONAMIDE]
6.32	6.62	COc1cc(Cl)ccc1-c1ncc(C#N)c2cc(S(=O)(=O)Nc3nccs3)ccc12 [Example 241, 1-(4-chloro-2-methoxyphenyl)-4-cyano-N-(thiazol-2-yl)isoquinoline-6-sulfonamide]
5.41	5.60	COc1cc(C(F)(F)F)ccc1-c1ncc(C#N)c2cc(S(=O)(=O)Nc3ccncn3)ccc12 [Example 242, 4-CYANO-1-(2-METHOXY-4-(TRIFLUOROMETHYL)PHENYL)-N-(PYRIMIDIN-4-YL)ISOQUINOLINE-6-SULFONAMIDE]

pIC50 (Nav 1.7 [1])	pIC50 (Nav 1.7 [2])	Compound
4.97	6.11	O=S(=O)(Nc1nccs1)c1ccc2c(N3CCC(c4ccccc4)C3)nccc2c1 (stereo not shown) [Example 243, 1-(3-PHENYLPYRROLIDIN-1-YL)-N-(THIAZOL-2-YL)ISOQUINOLINE-6-SULFONAMIDE]
4.95	5.93	Cn1cccc1-c1nccc2cc(S(=O)(=O)Nc3nccs3)ccc12 [Example 244, 1-(1-METHYL-1H-PYRROL-2-YL)-N-(THIAZOL-2-YL)ISOQUINOLINE-6-SULFONAMIDE]
4.56	5.67	COCCN1CCCC1c1nccc2cc(S(=O)(=O)Nc3nccs3)ccc12 (stereo not shown) [Example 246, 1-(1-(2-METHOXYETHYL)PYRROLIDIN-2-YL)-N-(THIAZOL-2-YL)ISOQUINOLINE-6-SULFONAMIDE]
6.54	7.52	COc1cc(Cl)ccc1-c1nncc2cc(S(=O)(=O)Nc3nccs3)ccc12 [Example 249, 1-(4-CHLORO-2-METHOXYPHENYL)-N-(THIAZOL-2-YL)PHTHALAZINE-6-SULFONAMIDE]
5.94	7.30	COc1cc(F)ccc1-c1nncc2cc(S(=O)(=O)Nc3nccs3)ccc12 [Example 250, 1-(4-FLUORO-2-METHOXYPHENYL)-N-(THIAZOL-2-YL)PHTHALAZINE-6-SULFONAMIDE]
5.70	7.10	COc1cc(C#N)ccc1-c1nncc2cc(S(=O)(=O)Nc3nccs3)ccc12 [Example 251, 1-(4-CYANO-2-METHOXYPHENYL)-N-(THIAZOL-2-YL)PHTHALAZINE-6-SULFONAMIDE]
5.72	6.92	COc1ccccc1-c1nncc2cc(S(=O)(=O)Nc3nccs3)ccc12 [Example 252, 1-(2-METHOXYPHENYL)-N-(THIAZOL-2-YL)PHTHALAZINE-6-SULFONAMIDE]
6.47	7.70	COc1cc(C(F)(F)F)ccc1-c1nncc2cc(S(=O)(=O)Nc3nccs3)ccc12 [Example 253, 1-(2-METHOXY-4-(TRIFLUOROMETHYL)PHENYL)-N-(THIAZOL-2-YL)PHTHALAZINE-6-SULFONAMIDE]
5.28	6.59	COc1cc(C(F)(F)F)ccc1-c1nncc2cc(S(=O)(=O)Nc3ccncn3)ccc12 [Example 254, 1-(2-METHOXY-4-(TRIFLUOROMETHYL)PHENYL)-N-(PYRIMIDIN-4-YL)PHTHALAZINE-6-SULFONAMIDE]
6.82	7.70	COc1cc(C(F)(F)F)ccc1-c1nncc2cc(S(=O)(=O)Nc3ncc(F)s3)ccc12 [Example 255, N-(5-FLUOROTHIAZOL-2-YL)-1-(2-METHOXY-4-(TRIFLUOROMETHYL)PHENYL)PHTHALAZINE-6-SULFONAMIDE]
6.08	7.15	COc1cc(F)ccc1-c1nncc2cc(S(=O)(=O)Nc3ncc(F)s3)ccc12 [Example 256, 1-(4-FLUORO-2-METHOXYPHENYL)-N-(5-FLUOROTHIAZOL-2-YL)PHTHALAZINE-6-SULFONAMIDE]
5.98	6.59	COc1ccccc1-c1nncc2cc(S(=O)(=O)Nc3ncc(F)s3)ccc12 [Example 258]
6.02	7.40	COc1cc(C(F)(F)F)ccc1-c1ncnc2cc(S(=O)(=O)Nc3ccncn3)ccc12 [Example 262, 4-(2-METHOXY-4-(TRIFLUOROMETHYL)PHENYL)-N-(PYRIMIDIN-4-YL)QUINAZOLINE-7-SULFONAMIDE]
6.55	8.00	COc1cc(C(F)(F)F)ccc1-c1ncnc2cc(S(=O)(=O)Nc3ncc(F)s3)ccc12 [Example 263, N-(5-FLUOROTHIAZOL-2-YL)-4-(2-METHOXY-4-(TRIFLUOROMETHYL)PHENYL)QUINAZOLINE-7-SULFONAMIDE]
5.73	6.77	COc1cc(C(F)(F)F)ccc1-c1ncnc2cc(S(=O)(=O)Nc3ncco3)ccc12 [Example 264, 4-(2-METHOXY-4-(TRIFLUOROMETHYL)PHENYL)-N-(OXAZOL-2-YL)QUINAZOLINE-7-SULFONAMIDE]
6.82	7.70	COc1cc(C(F)(F)F)ccc1-c1ncnc2cc(S(=O)(=O)Nc3ncns3)ccc12 [Example 265, 4-(2-METHOXY-4-(TRIFLUOROMETHYL)PHENYL)-N-(1,2,4-THIADIAZOL-5-YL)QUINAZOLINE-7-SULFONAMIDE]

Compound	pIC50 (Nav 1.7 [1])	pIC50 (Nav 1.7 [2])
O=S(=O)(Nc1nccs1)c1ccc2c(-c3ccc(C(F)(F)F)cc3CC(O)CO)nccc2c1 (stereo not shown) [Example 230, 1-(2-(2,3-DIHYDROXYPROPYL)-4-(TRIFLUOROMETHYL)PHENYL)-N-(THIAZOL-2-YL)ISOQUINOLINE-6-SULFONAMIDE 2,2,2-TRIFLUOROACETATE]	6.23	7.52
O=S(=O)(Nc1nccs1)c1ccc2c(C3CCCN3C3CCOCC3)nccc2c1 (stereo not shown) [Example 245, 1-(1-(TETRAHYDRO-2H-PYRAN-4-YL)PYRROLIDIN-2-YL)-N-(THIAZOL-2-YL)ISOQUINOLINE-6-SULFONAMIDE 2,2,2-TRIFLUOROACETATE]	4.51	5.65
